In article PMC5526570, “In vitro and in vivo anti-inflammatory active copper(II)-lawsone complexes” (PLoS ONE, 2017):
Entries after “also recorded” stand apart in the source; their conditions may differ.

Key:
NF-κB = NF-κB activity, secreted alkaline phosphatase reporter in THP1-XBlue-MD2-CD14 cells; format: cell-based, human; details: 1 h pretreatment, 24 h; for decrease of NF-κB activity stimulated by LPS: LPS 1 μg/mL; for decrease of NF-κB activation induced by Pam3CSK4: Pam3CSK4 100 ng/mL; for decrease of NF-κB activity stimulated by TNF-α: TNF-α 10 ng/mL
Experimental: The THP-1 human monocytic leukemia cell line was obtained from the European Collection of Cell Cultures (ECACC, Salisbury, UK) and THP1-XBlue™-MD2-CD14 cells were purchased from Invivogen (San Diego, USA). The cells were cultivated at 37°C in the RPMI 1640 medium supplemented with 2 mM L-glutamine, 10% FBS, 100 U/mL penicillin, and 100 μg/mL streptomycin in a humidified atmosphere containing 5% CO2. The culture was split twice a week when the cells had reached the concentration of 5–7×10^5 cells/mL. The cell count and viability were determined following staining with erythrosin B. The cells were counted manually using a hemocytometer and a light microscope.
One hundred microliters of the stabilized THP-1 cells (5th-20th passage) were split into 96-well plates to afford the concentration of 5×10^5 cells/mL, and differentiation into macrophages was induced by the addition of phorbol myristate acetate (PMA), as described previously. THP1-XBlue™-MD2-CD14 cells were used without any differentiation due to their stabile expression of MD2 and CD14 co-receptors.
THP1-XBlue™-MD2-CD14 cells were transferred into a serum-free medium at the concentration of 5×10^5 cells/mL. The floated cells were pretreated with the tested compounds (i.e. complexes 1–7, [Cu(Law)2(H2O)2]·0.5H2O, and Hlaw, respectively) and stimulated either by LPS (1 μg/mL), or by the addition of human recombinant TNF-α (10 ng/mL; Invivogen), or by Pam3CSK4 (100 ng/mL; Invivogen), a synthetic triacylated lipoprotein and selective Toll-like receptor 1/2 agonist. After 24 h of the incubation, 20 μL of the cultivation medium was mixed with 180 μL of Quanti-Blue medium and incubated according to the manufacturer’s instructions at 37°C for 2 h. The activity of released alkaline phosphatase, directly proportional to the NF-κB activity, was quantified from the difference in absorbance at 655 nm against the untreated control.

[1] = system: carrageenan-induced hind paw edema; experiment: Carrageenan-induced hind paw edema, plethysmometry; format: in vivo, rat; details: rats, i.p., dose corresponding to 40 mmol Cu/kg (ca. 20 mg/kg), 30 min before carrageenan, up to 6 h
Experimental: Wistar—SPF (6–8 weeks male) rats were obtained from the AnLab, Ltd., Prague. The animals were kept in plexiglass cages at the constant temperature of 22±1°C, and relative humidity of 55±5% for at least 1 week before the experiment. They were given food and water ad libitum. After a one-week adaptation period, male Wistar-SPF rats (200–250 g) were randomly assigned into ten groups (n = 7) of animals in the study. The first, control group, received 10% DMF (v/v in water, intraperitoneal; i.p.). The next eight groups were pretreated with complexes 1–7 and [Cu(Law)2(H2O)2]·0.5H2O (at the dose corresponding to […] Cu/kg; ca. 20 mg/kg) and involved into the carrageenan-treatment. The last group was treated with a non-steroidal anti-inflammatory drug Indomethacin (5 mg/kg), which served as a positive control (Indomethacin + carrageenan).
The carrageenan-induced hind paw edema model was used for the determination of the anti-inflammatory activity. […] The paw volume was measured immediately after the carrageenan injection and during the next 6 h after the administration of the edematogenic agent using a plethysmometer (model 7159, Ugo Basile, Varese, Italy). The degree of swelling induced was evaluated as the percentage of change in the volume of the right hind paw after the carrageenan treatment from the volume of the right hind paw before the carrageenan treatment.

[2] = system: PMN infiltration of hind paw tissue; experiment: Ex vivo histological evaluation of hind paw tissue (hematoxylin/eosin); format: in vivo, rat; details: rats, i.p., tissue after 6 h
Description: All the animals were sacrificed by cervical dislocation, and immediately after that, the affected hind paws were separated and underwent the process of dehydration and fixation, and were embedded into paraffin blocks by means of standard protocols. The histopathological changes, like infiltration of different skin elements and deeper laying tissues by the polymorphonuclear white blood cells (dominantly neutrophils and lymphocytes) stained by the standard hematoxylin/eosin staining, were evaluated.

[3] = In vitro cytotoxicity, WST-1 assay, 24 h; format: cell-based; details: human, THP-1 monocytic leukemia cells
Experimental: The final concentration of the solvent in the culture medium was 0.1% (v/v). The cells were incubated at 37°C with 5% CO2 for 24 h. After the incubation, the cytotoxicity was determined by the Cell Proliferation Reagent WST-1 kit according to the manufacturer´s instructions.

TNF-α = TNF-α secretion in LPS-stimulated THP-1 macrophages (ELISA); format: cell-based, human; details: 100 nM, 1 h pretreatment, LPS 1 μg/mL, 24 h
Experimental: One hundred microliters of the stabilized THP-1 cells (5th-20th passage) were split into 96-well plates to afford the concentration of 5×10^5 cells/mL, and differentiation into macrophages was induced by the addition of phorbol myristate acetate (PMA), as described previously. […] Whereas the complexes were dissolved in PBS, lawsone was dissolved in DMSO. With respect to the results of cytotoxicity assay, the concentration of 100 nM should not affect the viability of the target cells in any way. For comparative purposes, a conventional drug prednisone was used at the standard dose of 1 μM dissolved in DMSO. Then, the DMSO was added to the rest of the wells. […] Vehicle-treated cells contained a vehicle (0.1% DMSO) only. The TNF-α secretion in the pretreated differentiated THP-1 macrophages was induced by the addition of 1 μg/mL LPS dissolved in sterile water. The basal cytokine expression level was determined in the control cells without the LPS stimulation. LPS triggers an inflammatory response through binding to toll-like receptor 4 (TLR-4) and subsequently activates the NF-κB signaling pathway. The cultivation medium was aspirated 24 h after the LPS addition and the cell residue was removed by centrifugation. The concentration of the secreted TNF-α was determined using the Human TNF-α Instant ELISA kit.

[4] = 100 nM, vs vehicle-treated cells

For `O.O=C1C=C([O-])C(=O)c2ccccc21.O=C1C=C([O-])C(=O)c2ccccc21.[Cu+2].c1ccncc1` [compound 1, [Cu(Law)2(H2O)(py)]], which “decrease of NF-κB activity stimulated by LPS” value (“decrease … by LPS” for short) (NF-κB; [4]) is on record?
The value was “did not affect”.

And the “decrease of NF-κB activation induced by Pam3CSK4” value (NF-κB; 100 nM)?
Its value is “no noticeable effect”.

What about the “antiedematous activity (hind paw swelling)” value [1] of the same compound?
Its value is “diminish completely the swelling of the hind paw; also recorded: most active”.

And the “PMN infiltration / inflammatory reaction in hind paw tissue” value ([2]; (ca. 20 mg/kg))?
Its value is “mainly scarce and diffuse”.

What does the source list for `O=C1C=C([O-])C(=O)c2ccccc21.O=C1C=C([O-])C(=O)c2ccccc21.[Cu+2].c1c[nH]cn1.c1c[nH]cn1` [compound 2, [Cu(Law)2(Im)2]]?
decrease of NF-κB activity stimulated by LPS (NF-κB; [4]): 10%; decrease of NF-κB activation induced by Pam3CSK4 (NF-κB; 100 nM): no noticeable effect

With `COc1ccc2c(c1)c(CC(=O)O)c(C)n2C(=O)c1ccc(Cl)cc1` [indomethacin, reference compound] as the compound, how does the “PMN infiltration / inflammatory reaction in hind paw tissue” value ([2]; 5 mg/kg) read?
The value was “mainly scarce and diffuse”.

For `O=C1C=C(O)C(=O)c2ccccc21` [lawsone, 2-hydroxy-1,4-naphthoquinone], which “decrease … by LPS” value (NF-κB; [4]) is on record?
The value was 19–24%.

And the “decrease of NF-κB activity stimulated by TNF-α” value (NF-κB; 100 nM)?
The value was 32%.

What about the viability at 24 h, 10 µM [3] of the same compound?
Its viability at 24 h, 10 µM is ~80%.

And the “decrease of TNF-α expression/secretion in LPS-stimulated cells” value (TNF-α)?
Its value is 28%.

Which results are given for `C[C@]12C=CC(=O)C=C1CC[C@@H]1[C@@H]2C(=O)C[C@@]2(C)[C@H]1CC[C@]2(O)C(=O)CO` [prednisone, reference compound]?
decrease of NF-κB activity stimulated by LPS (NF-κB; 1 μM): 26%; decrease of NF-κB activity stimulated by TNF-α (NF-κB; 1 μM): 37%

What does the source list for “[Cu(Law)2(3,5diMePz)2]·0.5H2O [compound 7]”?
decrease of NF-κB activity stimulated by LPS (NF-κB; [4]): 19–24%; antiedematous activity (hind paw swelling) [1]: least active; PMN infiltration / inflammatory reaction in hind paw tissue ([2]; (ca. 20 mg/kg)): massive presence of PMN cells

For [Cu(Law)2(3-OHpy)2] [compound 6], which “decrease … by LPS” value (NF-κB; [4]) is on record?
The value was 12%.

For [Cu(Law)2(3-apy)2]·0.5H2O [compound 4], which “decrease … by LPS” value (NF-κB; [4]) is on record?
The value was 19–24%.

Which “decrease … by LPS” value (NF-κB; [4]) does the source give for “[Cu(Law)2(H2O)(2-apy)]·0.5H2O [compound 3]” here?
The value was 19–24%.

And the “decrease of NF-κB activation induced by Pam3CSK4” value (NF-κB; 100 nM)?
The value was “most efficient”.

What about the “decrease of TNF-α expression/secretion in LPS-stimulated cells” value (TNF-α) of the same compound?
Its value is “greatest potential”.
